Assay results from US9550796B2, “Pyrrolopyrrolone derivatives and their use as BET inhibitors” (NOVARTIS AG, priority 2013, dated 2017).

How the values were obtained:
MV-4-11 = assay: Cell growth inhibition assay (CellTiter-Glo), MV-4-11; format: cell-based, human; settings: MV-4-11 cells, 4 days; for GI50: Homo sapiens, MV4-11, 96 h, half-maximal growth inhibition; for MV-4-11 TGI: total growth inhibition
Procedure, shortened: (§1)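 4-day CTG ATP readout, 37 °C/5% CO2; top conc 10 μM, 3-fold dilutions; 0.1% DMSO vehicle. Luminescence background-subtracted, normalised to day 0 plate; vehicle = 100%, medium = −100%. IC50/TGI by 4-parameter fit.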

CREBBP = CREBBP (Homo sapiens (Human), UniProt Q92793); assay: AlphaScreen in-vitro binding assay for CREBBP; settings: 324 nM His-CREBBP (1081-1197), acetyl-histone H4 (AcK 5, 8, 12) peptide
Sequence of CREBBP (Q92793 1081-1197): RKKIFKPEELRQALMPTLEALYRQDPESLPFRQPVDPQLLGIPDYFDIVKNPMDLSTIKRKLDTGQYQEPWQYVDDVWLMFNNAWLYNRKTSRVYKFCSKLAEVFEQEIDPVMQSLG
Procedure, shortened: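 IC50 values were derived by non-linear regression of percent inhibition across 8 compound concentrations. Protein was His-tagged CREBBP bromodomain (1081-1197), peptide acetyl-histone H4 (AcK 5, 8, 12), in HEPES pH 7.5 buffer. Read-out was AlphaScreen with Ni-chelate acceptor and streptavidin donor beads, 35 min at 30° C then 60 min at RT.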

BRD3 = BRD3 (Homo sapiens (Human), UniProt Q15059); assay: TR-FRET in-vitro binding assay for BRD3; settings: 45 nM His-Brd3(20-477), acetyl-histone H4 (AcK 5, 8, 12, 16) peptide
Sequence of BRD3 (Q15059 20-477): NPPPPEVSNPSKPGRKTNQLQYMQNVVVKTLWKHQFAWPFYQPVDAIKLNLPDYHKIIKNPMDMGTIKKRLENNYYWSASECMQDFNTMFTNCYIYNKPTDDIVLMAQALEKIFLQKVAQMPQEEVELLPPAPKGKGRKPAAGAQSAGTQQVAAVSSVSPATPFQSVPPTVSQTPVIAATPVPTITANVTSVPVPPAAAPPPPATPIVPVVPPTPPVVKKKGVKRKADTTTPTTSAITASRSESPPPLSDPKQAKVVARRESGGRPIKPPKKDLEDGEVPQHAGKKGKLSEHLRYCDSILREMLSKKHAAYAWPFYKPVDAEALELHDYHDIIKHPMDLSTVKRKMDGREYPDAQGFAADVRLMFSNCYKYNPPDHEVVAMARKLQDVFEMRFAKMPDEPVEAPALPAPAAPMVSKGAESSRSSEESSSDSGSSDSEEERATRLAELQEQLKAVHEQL
Procedure, shortened: (§2)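 Incubation at 30° C lasted 35 min, followed by TR-FRET measurement; each compound was tested as 8 single-point concentrations.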

K-562 = assay: Cell growth inhibition assay (CellTiter-Glo), K-562; format: cell-based, human; settings: K-562 cells, 4 days; for GI50: Homo sapiens, K562, 96 h, half-maximal growth inhibition; for K-562 TGI: total growth inhibition
Procedure, shortened: as §1

BRD4 = BRD4 (Homo sapiens (Human), UniProt O60885); assay: TR-FRET in-vitro binding assay for BRD4; settings: 45 nM His-Brd4(44-477), acetyl-histone H4 (AcK 5, 8, 12, 16) peptide
Procedure, shortened: as §2

BRD2 = BRD2 (Homo sapiens (Human), UniProt P25440); assay: TR-FRET in-vitro binding assay for BRD2; settings: 45 nM His-Brd2(60-472), acetyl-histone H4 (AcK 5, 8, 12, 16) peptide
Sequence of BRD2 (P25440 60-472): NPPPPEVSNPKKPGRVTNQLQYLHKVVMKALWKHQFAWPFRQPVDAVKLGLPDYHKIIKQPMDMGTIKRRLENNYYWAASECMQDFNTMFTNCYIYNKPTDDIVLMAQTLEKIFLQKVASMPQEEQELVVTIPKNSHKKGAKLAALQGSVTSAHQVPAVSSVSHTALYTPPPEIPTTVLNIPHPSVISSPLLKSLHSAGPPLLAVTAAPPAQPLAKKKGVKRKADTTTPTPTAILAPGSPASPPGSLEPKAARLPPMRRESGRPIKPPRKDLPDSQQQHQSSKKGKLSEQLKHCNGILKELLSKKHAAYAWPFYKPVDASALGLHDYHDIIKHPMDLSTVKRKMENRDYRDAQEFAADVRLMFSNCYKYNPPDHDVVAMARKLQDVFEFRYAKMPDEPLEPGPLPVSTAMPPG
Method: TR-FRET In-Vitro Binding Assays for BRD2, BRD3, and BRD4: All assays were performed in 384-well microtiter plates. […] Liquid handling and incubation steps were done on an Innovadyne Nanodrop Express equipped with a robotic arm (Thermo CatX, Perkin Elmer/Caliper Twister II) and an incubator (Liconic STX40, Thermo Cytomat 2C450). The assay plates were prepared by addition of 50 nl per well of compound solution in 90% DMSO HummingBird nanodispenser (Zinsser Analytic). […] Reactions were incubated at 30° C. for 35 minutes. […] After 35 minutes incubation at 30° C., plates were measured in a Perkin Elmer EnVision multilabel reader. […] The stock solutions were stored at […] if not used immediately. For the test procedure the vials were defrosted and identified by a scanner whereby a working sheet was generated that guided the subsequent working steps. Compound dilutions were made in 96 well plates. This format enabled the assay of maximally […] at 8 concentrations (single points) including 4 reference compounds, if desired (known BET inhibitors from the prior art, for this and other assays of the type disclosed herein). The dilution protocol included the production of “pre-dilution plates”, “master plates” and “assay plates”. Polypropylene 96-well plates were used as pre-dilution plates. […] All dilution steps were done on a HamiltonSTAR robot. […] Identical “assay plates” were then prepared by pipetting 50 nL each of compound dilutions of the “master plates” into 384-well “assay plates” by means of a HummingBird 384-channel dispenser. These plates were used directly for the assay which was performed in a total volume of 13.55 μL.

THP-1 = assay: Cell growth inhibition assay (CellTiter-Glo), THP-1; format: cell-based, human; settings: THP-1 cells, 4 days; for GI50: Homo sapiens, 96 h, half-maximal growth inhibition; for THP-1 TGI: total growth inhibition
Procedure, shortened: as §1

SMILES	GI50 (MV-4-11) [nM]	MV-4-11 TGI (MV-4-11) [nM]	IC50 (CREBBP) [nM]	IC50 (BRD3) [nM]	GI50 (K-562) [nM]	K-562 TGI (K-562) [nM]	IC50 (BRD4) [nM]	IC50 (BRD2) [nM]	GI50 (THP-1) [nM]	THP-1 TGI (THP-1) [nM]
COCn1cc(C)c2c1C(c1ccc(Cl)cc1)N(c1cc(C)c3nnn(C)c3n1)C2=O (stereo not shown) [Example 2, 6-(4-chlorophenyl)-5-(3,7-dimethyl-3H-[1,2,3]triazolo[4,5-b]pyridin-5-yl)-1-(methoxymethyl)-3-methyl-5,6-dihydropyrrolo[3,4-b]pyrrol-4(1H)-one]	7.66	19.7	> 37000	16	62.1	>10000	12	23	15.1	34.7
Cc1c[nH]c2c1C(=O)N(c1cc(C)c3nnc(C)n3c1)C2c1ccc(Cl)cc1 (stereo not shown) [Example 3, 6-(4-chlorophenyl)-5-(3,8-dimethyl-[1,2,4]triazolo[4,3-a]pyridin-6-yl)-3-methyl-5,6-dihydropyrrolo[3,4-b]pyrrol-4(1H)-one]	7.68	18.75	8200	16	55.4	>10000	14	24	15.7	36.9
Cc1cn(C2CN(C)C2)c2c1C(=O)N(c1cc(C)c3nnc(C)n3c1)C2c1ccc(Cl)cc1 (stereo not shown) [Example 5, 6-(4-chlorophenyl)-5-(3,8-dimethyl-[1,2,4]triazolo[4,3-a]pyridin-6-yl)-3-methyl-1-(1-methylazetidin-3-yl)-5,6-dihydropyrrolo[3,4-b]pyrrol-4(1H)-one]	6.3	13.05	6300	25	47.8	>10000	24	45	12.1	36.2
Cn1cc(-c2cc3c(n2C2CC2)C(c2ccc(Cl)cc2)N(c2cc(Cl)c(=O)n(C)c2)C3=O)ccc1=O (stereo not shown) [Example 66, 5-(5-chloro-1-methyl-6-oxo-1,6-dihydropyridin-3-yl)-6-(4-chlorophenyl)-1-cyclopropyl-2-(1-methyl-6-oxo-1,6-dihydropyridin-3-yl)-5,6-dihydropyrrolo[3,4-b]pyrrol-4(1H)-one]	43.9	87.45	240	–	250	>10000	–	52	76.4	135
COc1ccc(C2c3c(ccn3C)C(=O)N2c2cc(Cl)c(=O)n(C)c2)cc1 (stereo not shown) [Example 92, 5-(5-chloro-1-methyl-6-oxo-1,6-dihydropyridin-3-yl)-6-(4-methoxyphenyl)-1-methyl-5,6-dihydropyrrolo[3,4-b]pyrrol-4(1H)-one]	655	1495	–	690	2870	>10000	890	850	680	2405
CC(=O)Nc1cn(C)c2c1C(=O)N(c1cc(C)c3nnc(C)n3c1)C2c1ccc(Cl)cc1 (stereo not shown) [Example 103, N-(6-(4-chlorophenyl)-5-(3,8-dimethyl-[1,2,4]triazolo[4,3-a]pyridin-6-yl)-1-methyl-4-oxo-1,4,5,6-tetrahydropyrrolo[3,4-b]pyrrol-3-yl)acetamide]	19.9	52.6	5200	–	241	>10000	–	31	45	119
Cc1cc(N2C(=O)c3c(C4CC4)cn(C4CN(C)C4)c3C2c2ccc(Cl)cc2)nc2c1nnn2C (stereo not shown) [Example 106, 6-(4-chlorophenyl)-3-cyclopropyl-5-(3,7-dimethyl-3H-[1,2,3]triazolo[4,5-b]pyridin-5-yl)-1-(1-methylazetidin-3-yl)-5,6-dihydropyrrolo[3,4-b]pyrrol-4(1H)-one]	0.522	2.23	–	12	5.68	>10000	12	13	1.16	3.335
